{"source": "paper PMC7827406", "about": "“Structure–Activity Relationship (SAR) Study of Spautin-1 to Entail the Discovery of Novel NEK4 Inhibitors” (International Journal of Molecular Sciences, 2021)", "experiment_in_all_cases": "biochemical", "parameters_in_all_cases": "Eurofins KinaseProfiler full panel at Km ATP, residual kinase activity (%) relative to DMSO", "key": {"BrSK1(h)": {"target": "T1, BrSK1(h) (Homo sapiens, UniProt Q8TDC3)", "T1 sequence (Q8TDC3 1-778)": "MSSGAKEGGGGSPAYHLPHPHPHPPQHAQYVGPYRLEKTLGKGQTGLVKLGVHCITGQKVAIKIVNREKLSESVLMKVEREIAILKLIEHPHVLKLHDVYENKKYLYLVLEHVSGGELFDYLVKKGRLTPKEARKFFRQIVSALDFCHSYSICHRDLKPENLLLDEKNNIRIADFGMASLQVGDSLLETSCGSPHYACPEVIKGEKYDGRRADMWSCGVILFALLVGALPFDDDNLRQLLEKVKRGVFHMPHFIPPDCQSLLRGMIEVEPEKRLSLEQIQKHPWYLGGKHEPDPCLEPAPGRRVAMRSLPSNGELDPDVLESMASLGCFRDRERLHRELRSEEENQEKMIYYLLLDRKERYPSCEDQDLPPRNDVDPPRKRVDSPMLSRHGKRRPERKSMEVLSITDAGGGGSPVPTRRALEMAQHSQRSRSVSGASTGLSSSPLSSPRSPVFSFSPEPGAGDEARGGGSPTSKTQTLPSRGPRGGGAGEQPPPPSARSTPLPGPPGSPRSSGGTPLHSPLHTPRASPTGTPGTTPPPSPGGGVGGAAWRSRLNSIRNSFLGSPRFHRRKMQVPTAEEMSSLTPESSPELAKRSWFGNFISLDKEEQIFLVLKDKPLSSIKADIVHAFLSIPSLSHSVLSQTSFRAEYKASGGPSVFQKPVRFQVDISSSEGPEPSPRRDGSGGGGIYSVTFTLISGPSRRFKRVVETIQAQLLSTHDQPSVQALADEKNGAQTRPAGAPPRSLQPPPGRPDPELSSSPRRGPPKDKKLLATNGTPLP", "how_it_was_run": "(§1)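 Radiometric kinase activity assays were run with ATP at Km and compounds at 10 µM, and remaining activity (%) was reported. A separate competitive binding screen measured DNA-tagged kinase displaced from immobilized active-site ligands by qPCR, giving percent kinase still bound at 10 µM compound in DMSO.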"}, "CaMKIIδ(h)": {"target": "T2, CaMKIIδ(h) (Homo sapiens, UniProt Q13557)", "T2 construct": "gene CAMK2D", "how_it_was_run": "as §1"}, "DCAMKL3(h)": {"target": "T3, DCAMKL3(h) (Homo sapiens, UniProt Q9C098)", "T3 construct": "gene DCLK3", "T3 sequence (Q9C098 1-648)": "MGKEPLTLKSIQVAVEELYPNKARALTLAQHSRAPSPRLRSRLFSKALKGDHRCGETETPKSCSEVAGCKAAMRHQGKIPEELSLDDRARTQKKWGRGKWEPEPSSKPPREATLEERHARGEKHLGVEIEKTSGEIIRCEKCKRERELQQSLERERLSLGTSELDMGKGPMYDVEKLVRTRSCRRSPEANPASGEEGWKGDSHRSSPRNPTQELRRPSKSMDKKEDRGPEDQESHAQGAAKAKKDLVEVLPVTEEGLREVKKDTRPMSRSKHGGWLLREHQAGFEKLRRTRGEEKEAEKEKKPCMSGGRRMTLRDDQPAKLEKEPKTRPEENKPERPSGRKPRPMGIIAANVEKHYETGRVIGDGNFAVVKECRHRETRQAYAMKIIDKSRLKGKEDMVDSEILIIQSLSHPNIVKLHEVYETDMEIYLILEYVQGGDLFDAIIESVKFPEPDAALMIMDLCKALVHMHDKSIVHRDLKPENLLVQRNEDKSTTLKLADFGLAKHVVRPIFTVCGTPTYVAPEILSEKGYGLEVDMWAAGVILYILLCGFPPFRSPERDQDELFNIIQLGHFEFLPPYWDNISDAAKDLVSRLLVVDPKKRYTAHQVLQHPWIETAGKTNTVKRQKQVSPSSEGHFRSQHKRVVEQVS", "how_it_was_run": "as §1"}, "GRK7(h)": {"target": "T4, GRK7(h) (Homo sapiens, UniProt Q8WTQ7)", "T4 sequence (Q8WTQ7 1-553)": "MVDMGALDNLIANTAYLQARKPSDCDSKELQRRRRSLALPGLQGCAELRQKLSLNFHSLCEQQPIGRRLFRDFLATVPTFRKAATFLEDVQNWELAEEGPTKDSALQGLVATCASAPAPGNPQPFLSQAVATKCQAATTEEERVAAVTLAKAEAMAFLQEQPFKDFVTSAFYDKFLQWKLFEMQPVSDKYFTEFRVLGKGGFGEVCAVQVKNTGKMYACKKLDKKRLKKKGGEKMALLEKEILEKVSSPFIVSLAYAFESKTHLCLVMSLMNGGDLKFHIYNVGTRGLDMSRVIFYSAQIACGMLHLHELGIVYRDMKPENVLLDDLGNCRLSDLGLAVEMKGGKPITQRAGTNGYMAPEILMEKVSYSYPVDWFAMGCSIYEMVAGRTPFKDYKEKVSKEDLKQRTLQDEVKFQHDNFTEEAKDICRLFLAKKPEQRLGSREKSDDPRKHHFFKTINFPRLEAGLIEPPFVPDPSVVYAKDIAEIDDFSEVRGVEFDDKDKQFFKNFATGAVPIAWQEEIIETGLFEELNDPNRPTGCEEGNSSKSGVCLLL", "how_it_was_run": "as §1"}, "LTK(h)": {"target": "LTK(h) (Homo sapiens, UniProt P29376)", "sequence (P29376 whole entry)": "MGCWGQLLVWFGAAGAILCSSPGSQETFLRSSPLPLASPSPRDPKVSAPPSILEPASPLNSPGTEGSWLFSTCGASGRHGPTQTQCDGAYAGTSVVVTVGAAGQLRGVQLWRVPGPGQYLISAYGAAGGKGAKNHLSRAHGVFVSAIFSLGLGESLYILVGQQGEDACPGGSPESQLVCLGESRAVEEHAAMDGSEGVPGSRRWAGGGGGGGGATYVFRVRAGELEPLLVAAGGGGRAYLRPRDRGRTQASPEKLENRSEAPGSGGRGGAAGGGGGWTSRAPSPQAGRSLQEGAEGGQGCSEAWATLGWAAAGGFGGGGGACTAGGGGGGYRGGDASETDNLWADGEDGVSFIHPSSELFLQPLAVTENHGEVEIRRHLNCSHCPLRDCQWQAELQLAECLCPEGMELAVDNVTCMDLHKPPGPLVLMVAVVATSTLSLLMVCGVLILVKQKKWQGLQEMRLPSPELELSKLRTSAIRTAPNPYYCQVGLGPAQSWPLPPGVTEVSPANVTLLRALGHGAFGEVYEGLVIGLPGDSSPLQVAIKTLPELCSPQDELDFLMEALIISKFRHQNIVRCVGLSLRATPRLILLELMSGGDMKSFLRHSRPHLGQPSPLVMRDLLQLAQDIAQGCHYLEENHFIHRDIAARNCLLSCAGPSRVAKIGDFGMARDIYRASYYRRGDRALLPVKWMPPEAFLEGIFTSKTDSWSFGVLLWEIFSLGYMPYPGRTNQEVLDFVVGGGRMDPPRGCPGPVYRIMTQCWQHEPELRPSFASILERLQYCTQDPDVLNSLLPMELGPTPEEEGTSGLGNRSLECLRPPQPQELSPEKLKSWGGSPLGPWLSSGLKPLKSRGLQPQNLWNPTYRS", "how_it_was_run": "as §1"}, "cKit(D816H)(h)": {"target": "T5, cKit(D816H)(h) (Homo sapiens, UniProt P10721, D816H)", "T5 construct": "gene KIT", "T5 sequence (P10721 whole entry D816H)": "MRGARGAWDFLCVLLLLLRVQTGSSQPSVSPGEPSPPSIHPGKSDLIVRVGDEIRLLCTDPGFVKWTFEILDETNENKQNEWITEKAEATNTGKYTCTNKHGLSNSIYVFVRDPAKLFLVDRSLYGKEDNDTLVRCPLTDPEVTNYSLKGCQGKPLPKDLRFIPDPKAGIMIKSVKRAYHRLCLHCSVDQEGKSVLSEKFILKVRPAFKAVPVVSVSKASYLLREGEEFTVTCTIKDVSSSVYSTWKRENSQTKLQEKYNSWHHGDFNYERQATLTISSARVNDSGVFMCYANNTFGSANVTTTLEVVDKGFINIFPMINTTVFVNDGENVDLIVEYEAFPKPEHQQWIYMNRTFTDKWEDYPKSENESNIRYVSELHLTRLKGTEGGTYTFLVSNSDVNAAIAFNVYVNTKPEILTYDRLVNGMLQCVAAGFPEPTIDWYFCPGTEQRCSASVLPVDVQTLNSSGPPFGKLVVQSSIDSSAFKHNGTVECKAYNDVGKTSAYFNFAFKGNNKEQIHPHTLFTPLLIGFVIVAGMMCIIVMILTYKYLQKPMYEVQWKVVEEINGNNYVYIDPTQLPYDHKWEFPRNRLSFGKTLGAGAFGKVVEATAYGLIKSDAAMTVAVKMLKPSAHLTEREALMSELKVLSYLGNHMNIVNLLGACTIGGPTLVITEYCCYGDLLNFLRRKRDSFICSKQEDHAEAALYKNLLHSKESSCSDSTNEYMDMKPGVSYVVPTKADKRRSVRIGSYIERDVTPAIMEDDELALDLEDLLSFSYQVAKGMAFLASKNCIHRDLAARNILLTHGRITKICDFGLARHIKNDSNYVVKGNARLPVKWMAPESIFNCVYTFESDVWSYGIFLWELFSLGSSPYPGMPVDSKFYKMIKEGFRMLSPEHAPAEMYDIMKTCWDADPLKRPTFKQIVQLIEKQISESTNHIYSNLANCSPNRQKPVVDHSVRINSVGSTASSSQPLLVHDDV", "how_it_was_run": "as §1"}, "[1]": {"conditions": "read-out: Residual activity (%) 5ay"}, "[2]": {"conditions": "read-out: Residual activity (%) Spautin-1 5aa"}, "[3]": {"conditions": "read-out: Residual activity (%) 5at"}, "[4]": {"conditions": "read-out: Residual activity (%) 5as"}}, "note": "Like-named read-outs stand apart in the source and are kept apart here.", "data": [{"molecule": "COc1ccc2ncnc(Nc3cccc(F)c3)c2c1", "note": "[5ay, N-(3-Fluorophenyl)-6-Methoxy-4-Quinazolinamine]", "values": [{"measurement": "remaining activity at 10 µM", "setting": "BrSK1(h); [1]", "value": 30, "unit": "%"}, {"measurement": "remaining activity at 10 µM", "setting": "CaMKIIδ(h); [1]", "value": 41, "unit": "%"}, {"measurement": "remaining activity at 10 µM", "setting": "DCAMKL3(h); [1]", "value": 108, "unit": "%"}, {"measurement": "remaining activity at 10 µM", "setting": "GRK7(h); [1]", "value": 91, "unit": "%"}, {"measurement": "remaining activity at 10 µM", "setting": "LTK(h); [1]", "value": 76, "unit": "%"}, {"measurement": "remaining activity at 10 µM", "setting": "cKit(D816H)(h); [1]", "value": 89, "unit": "%"}]}, {"molecule": "Fc1ccc(CNc2ncnc3ccc(F)cc23)cc1", "note": "[5aa, 6-Fluoro-N-(4-fluorobenzyl)-4-Quinazolinamine]", "values": [{"measurement": "remaining activity at 10 µM", "setting": "BrSK1(h); [2]", "value": 85, "unit": "%"}, {"measurement": "remaining activity at 10 µM", "setting": "CaMKIIδ(h); [2]", "value": 90, "unit": "%"}, {"measurement": "remaining activity at 10 µM", "setting": "DCAMKL3(h); [2]", "value": 102, "unit": "%"}, {"measurement": "remaining activity at 10 µM", "setting": "GRK7(h); [2]", "value": 87, "unit": "%"}, {"measurement": "remaining activity at 10 µM", "setting": "LTK(h); [2]", "value": 88, "unit": "%"}, {"measurement": "remaining activity at 10 µM", "setting": "cKit(D816H)(h); [2]", "value": 115, "unit": "%"}]}, {"molecule": "Fc1ccc2ncnc(NCCc3ccc(Cl)cc3)c2c1", "note": "[5at, N-[2-(4-Chlorophenyl)Ethyl]-6-Fluoro-4-Quinazolinamine]", "values": [{"measurement": "remaining activity at 10 µM", "setting": "BrSK1(h); [3]", "value": 112, "unit": "%"}, {"measurement": "remaining activity at 10 µM", "setting": "CaMKIIδ(h); [3]", "value": 77, "unit": "%"}, {"measurement": "remaining activity at 10 µM", "setting": "DCAMKL3(h); [3]", "value": 107, "unit": "%"}, {"measurement": "remaining activity at 10 µM", "setting": "GRK7(h); [3]", "value": 93, "unit": "%"}, {"measurement": "remaining activity at 10 µM", "setting": "LTK(h); [3]", "value": 74, "unit": "%"}, {"measurement": "remaining activity at 10 µM", "setting": "cKit(D816H)(h); [3]", "value": 95, "unit": "%"}]}, {"molecule": "Fc1ccc(CCNc2ncnc3ccc(F)cc23)cc1", "note": "[5as, 6-Fluoro-N-[2-(4-Fluorophenyl)Ethyl]-4-Quinazolinamine]", "values": [{"measurement": "remaining activity at 10 µM", "setting": "BrSK1(h); [4]", "value": 89, "unit": "%"}, {"measurement": "remaining activity at 10 µM", "setting": "CaMKIIδ(h); [4]", "value": 79, "unit": "%"}, {"measurement": "remaining activity at 10 µM", "setting": "DCAMKL3(h); [4]", "value": 108, "unit": "%"}, {"measurement": "remaining activity at 10 µM", "setting": "GRK7(h); [4]", "value": 95, "unit": "%"}, {"measurement": "remaining activity at 10 µM", "setting": "LTK(h); [4]", "value": 76, "unit": "%"}, {"measurement": "remaining activity at 10 µM", "setting": "cKit(D816H)(h); [4]", "value": 95, "unit": "%"}]}]}
